Assay results from PubChem BioAssay AID328 (DTP/NCI, 2004).
Several values for one entry are separate records, joined by “and”; a condition that tells them apart may be missing. Equal entries are not always repeated. Inconclusive results and toxic doses are left out. How the source made its calls: active means survival T/C of 150% or more; inactive means T/C below 125% in these data.

System: BDF1 mice, P388 leukemia ip, median survival T/C
Experiment: NCI In Vivo Anticancer Drug Screen. Data for tumor model P388 Leukemia (intraperitoneal) in B6D2F1 (BDF1) mice
Conditions: endpoint: median survival time, higher = longer survival
Procedure, shortened: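 Transplantable tumour in mice; compound vs vehicle dosing; survival scored; ratio of treated to control reported.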

[1] = dose: 50.0 mg/kg/injection, schedule: Q01DX001 (ip), vehicle: saline with Tween-80
[2] = dose: 50.0 mg/kg/injection, schedule: Q01DX009 (ip), vehicle: saline with Tween-80
[3] = dose: 100.0 mg/kg/injection, schedule: Q01DX009 (ip), vehicle: saline with Tween-80
[4] = dose: 200.0 mg/kg/injection, schedule: Q01DX009 (ip), vehicle: saline with Tween-80

Measured: T/C

CCCCCCCCCCCCCCCCOc1c(Br)cc(Br)cc1Br
inactive: [1] 90 % of control

CN1CC(=O)N=C1N
inactive: dose: 100.0 mg/kg/injection, schedule: Q01DX009 (ip), vehicle: Klucel (hydroxypropylcellulose) (HPC) 90 % of control | dose: 200.0 mg/kg/injection, schedule: Q01DX009 (ip), vehicle: Klucel (hydroxypropylcellulose) (HPC) 95 % of control | dose: 400.0 mg/kg/injection, schedule: Q01DX009 (ip), vehicle: Klucel (hydroxypropylcellulose) (HPC) 100 % of control

C1CCc2nnnn2CC1
inactive: dose: 2.34 mg/kg/injection, schedule: Q04DX003 (ip), vehicle: saline 91 % of control | dose: 4.68 mg/kg/injection, schedule: Q04DX003 (ip), vehicle: saline 91 % of control | dose: 9.37 mg/kg/injection, schedule: Q04DX003 (ip), vehicle: saline 91 % of control | dose: 12.5 mg/kg/injection, schedule: Q01DX009 (ip), vehicle: saline 118 % of control | dose: 18.75 mg/kg/injection, schedule: Q04DX003 (ip), vehicle: saline 100 % of control | dose: 25.0 mg/kg/injection, schedule: Q01DX009 (ip), vehicle: saline 118 % of control

O=C1CN(Cc2ccccc2)CC(=O)N2Cc3ccccc3CN12
inactive: dose: 100.0 mg/kg/injection, schedule: Q01DX005 (ip), vehicle: saline with Tween-80 101 % of control | dose: 200.0 mg/kg/injection, schedule: Q01DX005 (ip), vehicle: saline with Tween-80 92 % of control

Cc1ccc(C(=O)/C=C/N2CCN(c3ccccc3)CC2)c(C)c1
inactive: dose: 100.0 mg/kg/injection, schedule: Q04DX003 (ip), vehicle: saline with Tween-80 100 % of control | dose: 200.0 mg/kg/injection, schedule: Q04DX003 (ip), vehicle: saline with Tween-80 100 % of control | dose: 400.0 mg/kg/injection, schedule: Q04DX003 (ip), vehicle: saline with Tween-80 90 % of control

O=C1C=CC(=O)N1c1ccc(Br)cc1Cl
active: dose: 1.0 mg/kg/injection, schedule: Q04DX003 (ip), vehicle: saline 155 % of control
inactive: dose: 2.0 mg/kg/injection, schedule: Q04DX003 (ip), vehicle: saline 122 % of control

Cc1ccc(S(=O)C(C)C(Cl)c2ccccc2)cc1 (stereo not given)
inactive: [2] 98 % of control | [3] 106 % of control | [4] 100 % of control

CC(=O)OCC1OC(=O)C(C)N(C)C(=O)CN(C)C(=O)C2C(=O)CC(C)N2C(=O)C(C(C)C)NC(=O)C1NC(=O)c1c2nc3c(C(=O)NC4C(=O)NC(C(C)C)C(=O)N5C(C)CC(OC(C)=O)C5C(=O)N(C)CC(=O)N(C)C(C(C)C)C(=O)OC4C)ccc(C)c3oc-2c(C)c(=O)c1N (stereo not given)
active: dose: 0.05 mg/kg/injection, schedule: Q01DX009 (ip), vehicle: saline with Tween-80 154 % of control | dose: 0.1 mg/kg/injection, schedule: Q01DX009 (ip), vehicle: saline with Tween-80 156 % of control | dose: 0.2 mg/kg/injection, schedule: Q01DX009 (ip), vehicle: saline with Tween-80 189 % of control | dose: 0.4 mg/kg/injection, schedule: Q01DX001 (ip), vehicle: saline with Tween-80 153 % of control | dose: 0.4 mg/kg/injection, schedule: Q01DX009 (ip), vehicle: saline with Tween-80 213 % of control | dose: 0.6 mg/kg/injection, schedule: Q04DX003 (ip), vehicle: saline with Tween-80 159 % of control | dose: 0.8 mg/kg/injection, schedule: Q01DX001 (ip), vehicle: saline with Tween-80 159 % of control | dose: 1.2 mg/kg/injection, schedule: Q04DX003 (ip), vehicle: saline with Tween-80 189 % of control | dose: 1.6 mg/kg/injection, schedule: Q01DX001 (ip), vehicle: saline with Tween-80 159 % of control | dose: 3.2 mg/kg/injection, schedule: Q01DX001 (ip), vehicle: saline with Tween-80 189 % of control
inactive: dose: 0.8 mg/kg/injection, schedule: Q01DX009 (ip), vehicle: saline with Tween-80 117 % of control | dose: 2.4 mg/kg/injection, schedule: Q04DX003 (ip), vehicle: saline with Tween-80 117 % of control

CCCCCCC(C)NCC(O)COc1cccc(C)c1 (stereo not given)
inactive: dose: 3.12 mg/kg/injection, schedule: Q01DX009 (ip), vehicle: Klucel (hydroxypropylcellulose) (HPC) 113 % of control | dose: 12.5 mg/kg/injection, schedule: Q01DX009 (ip), vehicle: Klucel (hydroxypropylcellulose) (HPC) 116 % of control | dose: 25.0 mg/kg/injection, schedule: Q01DX009 (ip), vehicle: Klucel (hydroxypropylcellulose) (HPC) 120 % of control

CN(C)C(=O)Nc1ccc(Cl)cc1
inactive: [1] 95 % of control | dose: 100.0 mg/kg/injection, schedule: Q01DX001 (ip), vehicle: saline with Tween-80 100 % of control | dose: 200.0 mg/kg/injection, schedule: Q01DX001 (ip), vehicle: saline with Tween-80 104 % of control

CCOC(=O)Nc1nc2ccccc2[nH]1
inactive: dose: 6.25 mg/kg/injection, schedule: Q01DX009 (ip), vehicle: saline with Tween-80 98 % of control | dose: 12.5 mg/kg/injection, schedule: Q01DX009 (ip), vehicle: saline with Tween-80 116 % of control | dose: 25.0 mg/kg/injection, schedule: Q01DX009 (ip), vehicle: saline with Tween-80 109 % of control | [2] 105 % of control

CS(=O)(=O)Nc1ccccc1[N+](=O)[O-]
inactive: [2] 109 % of control | [3] 104 % of control and 115 % of control | [4] 100 % of control
